Data: patent publication US6750223B2, “4-Anilino[2,3-b]quinoline derivatives, their preparation processes and pharmaceutical compositions comprising the same” (Kaohsiung Medical University, priority 2002, dated 2004)
Read-outs that look alike come from different tables or passages of the source.

Legend:
[1] = tested on: leukemia (CCRF-CEM, HL-60 (TB), K-562, MOLT-4, RPMI-8226, and SR); experiment: NCI in vitro anticancer screen, leukemia subpanel; type: cell-based; conditions: read-out: GI50 Leukemia
[2] = tested on: non-small cell lung cancer (A549/ATCC, EKVX, HOP-62, HOP-92, NCI-H226, NCI-H23, NCI-H322M, NCI-H460, and NCI-H522); experiment: NCI in vitro anticancer screen, non-small-cell lung cancer subpanel; type: cell-based, human
[3] = tested on: colon cancer (COLO 205, HCC-2998, HCT-116, HCT-15, HT29, KM12, and SW-620); experiment: NCI in vitro anticancer screen, colon cancer subpanel; type: cell-based, human; conditions: read-out: GI50 Colon cancer
[4] = tested on: CNS cancer (SF-268, SF-295, SF-539, SNB-19, SNB-75, and U251); experiment: NCI in vitro anticancer screen, CNS cancer subpanel; type: cell-based, human; conditions: read-out: GI50 CNS cancer
[5] = tested on: melanoma (LOX IMVI, MALME-3M, M14, SK-MEL-2, SK-MEL-28, SK-MEL-5, UACC-62, and UACC-257); experiment: NCI in vitro anticancer screen, melanoma subpanel; type: cell-based, human; conditions: read-out: GI50 Melanoma
[6] = tested on: ovarian cancer (IGROV1, OVCAR-3, OVCAR-4, OVCAR-5, OVCAR-8, and SK-OV-3); experiment: NCI in vitro anticancer screen, ovarian cancer subpanel; type: cell-based, human; conditions: read-out: GI50 Ovarian cancer
[7] = tested on: renal cancer (786-0, A498, ACHN, CAKI-1, RXF 393, SN12C, TK-10, and UO-31); experiment: NCI in vitro anticancer screen, renal cancer subpanel; type: cell-based, human; conditions: read-out: GI50 Renal cancer
[8] = tested on: prostate cancer (PC-3 and DU-145); experiment: NCI in vitro anticancer screen, prostate cancer subpanel; type: cell-based, human
[9] = tested on: breast cancer (MCF7, MCF7/ADR-RES, MDA-MB-231/ATCC, HS 578T, MDA-MB-435, MDA-N, and T-47D); experiment: NCI in vitro anticancer screen, breast cancer subpanel; type: cell-based, human; conditions: read-out: GI50 Breast cancer
[10] = tested on: NCI's full panel of 60 human cancer cell lines; experiment: NCI in vitro anticancer screen, full panel mean; type: cell-based
[11] = tested on: A549/ATCC; experiment: NCI in vitro anticancer screen, A549/ATCC; type: cell-based, human; conditions: non-small-cell lung cancer cell line
[12] = tested on: HOP-62; experiment: NCI in vitro anticancer screen, HOP-62; type: cell-based, human
[13] = tested on: HOP-92; experiment: NCI in vitro anticancer screen, HOP-92; type: cell-based, human
[14] = tested on: NCI-H226; experiment: NCI in vitro anticancer screen, NCI-H226; type: cell-based, human; conditions: non-small-cell lung cancer cell line
[15] = tested on: NCI-H23; experiment: NCI in vitro anticancer screen, NCI-H23; type: cell-based, human; conditions: non-small-cell lung cancer cell line
[16] = tested on: NCI-H322M; experiment: NCI in vitro anticancer screen, NCI-H322M; type: cell-based, human; conditions: non-small-cell lung cancer cell line
[17] = tested on: NCI-H460; experiment: NCI in vitro anticancer screen, NCI-H460; type: cell-based, human
[18] = tested on: NCI-H522; experiment: NCI in vitro anticancer screen, NCI-H522; type: cell-based, human
[19] = tested on: EKVX; experiment: NCI in vitro anticancer screen, EKVX; type: cell-based, human; conditions: non-small-cell lung cancer cell line
[20] = Homo sapiens, subpanel value, concentration causing 50% cell growth inhibition
[21] = Homo sapiens, subpanel value, read-out: GI50 Non-small-cell lung cancer
[22] = Homo sapiens, DU-145, subpanel value, read-out: GI50 Prostate cancer
[23] = Homo sapiens, mean values over all cell lines tested, read-out: GI50 MG_MID
[24] = mean over all cell lines, read-out: mean GI50
[25] = non-small-cell lung cancer cell line

SMILES	GI50 [1, 20]	GI50 [2, 21]	GI50 ([3]; Homo sapiens, subpanel value)	GI50 ([4]; Homo sapiens, subpanel value)	GI50 ([5]; Homo sapiens, subpanel value)	GI50 ([6]; Homo sapiens, subpanel value)	GI50 ([7]; Homo sapiens, subpanel value)	GI50 [8, 22]	GI50 ([9]; Homo sapiens, subpanel value)	GI50 [10, 23]	melting point	GI50 [10, 24]	also measured
Nc1cc(CO)cc(Nc2c3ccccc3nc3occc23)c1 [Compound 4, 3-(Furo[2,3-b]quinolin-4-ylamino)-5-(hydroxymethyl)aniline]	23000 nM	40900 nM	25200 nM	45900 nM	38600 nM	47700 nM	37700 nM	53600 nM	23800 nM	31100 nM	236 to 237 °C		
CC(=O)c1ccc(Nc2c3ccccc3nc3occc23)cc1 [Compound 5, 1-[4-(Furo[2,3-b]quinolin-4-ylamino)phenyl]ethanone]	< 10 nM	1750 nM	11 nM	16 nM	18 nM	39 nM	35 nM	21 nM	17 nM	25 nM	220 to 221 °C	25 nM	GI50 ([2]; Homo sapiens, read-out: average GI50 non-small-cell lung cancer): 1750 nM; GI50 ([10]; Homo sapiens, all types of cancer cells tested except non-small-cell lung cancer, read-out: mean GI50 in each type of cancer cells): < 40 nM; GI50 ([11]; Homo sapiens, A549): 570 nM; GI50 ([12]; Homo sapiens, HOP-62): < 10 nM; GI50 [12, 25]: < 10 nM; GI50 ([13]; Homo sapiens, HOP-92): 12400 nM; GI50 ([14]; Homo sapiens, NCI-H226): 310 nM; GI50 ([15]; Homo sapiens, NCI-H23): 37 nM; GI50 ([16]; Homo sapiens, NCI-H322M): 680 nM; GI50 ([17]; Homo sapiens, NCI-H460): 10 nM; GI50 ([18]; Homo sapiens, NCI-H522): < 10 nM; GI50 [18, 25]: < 10 nM
C=C1CC(C)(c2ccc(Nc3c4ccccc4nc4occc34)cc2)OC1=O (centres unmarked) [Compound 6, 5-[4-(Furo[2,3-b]quinolin-4-ylamino)phenyl]-2,3,4,5-tetrahydro-5-methyl-3-methylidenefuran-2-one]	900 nM	5590 nM	1560 nM	5300 nM	1710 nM	1920 nM	4760 nM	1320 nM	3270 nM	1770 nM			GI50 ([10]; Homo sapiens, mean over all cell lines, read-out: mean GI50): 1770 nM
CC(=O)c1cccc(Nc2c3ccccc3nc3occc23)c1 [Compound 7, 1-[3-(Furo[2,3-b]quinolin-4-ylamino)phenyl]ethanone]	3220 nM	14500 nM	5110 nM	7630 nM	6090 nM	11300 nM	10600 nM	12000 nM	5320 nM	5270 nM	158 to 159 °C	5270 nM	
C/C(=N\O)c1ccc(Nc2c3ccccc3nc3occc23)cc1 [Compound 8a, (E)-1-[4-(Furo[2.3-b]quinolin-4-ylamino)phenyl]ethanone oxime]												350 nM	GI50 ([1]; subpanel value, concentration causing 50% cell growth inhibition): 140 nM; GI50 ([2]; subpanel value, read-out: GI50 Non-small-cell lung cancer): 4440 nM; GI50 ([3]; subpanel value): 170 nM; GI50 ([4]; subpanel value): 350 nM; GI50 ([5]; subpanel value): 950 nM; GI50 ([6]; subpanel value): 530 nM; GI50 ([7]; subpanel value): 2680 nM; GI50 ([8]; subpanel value, read-out: GI50 Prostate cancer): 530 nM; GI50 ([9]; subpanel value): 420 nM; GI50 ([10]; mean values over all cell lines tested, read-out: GI50 MG_MID): 350 nM; GI50 [11]: 450 nM; GI50 [19]: 4030 nM; GI50 [12, 25]: 180 nM; GI50 [13, 25]: 10900 nM; GI50 [14]: 11500 nM; GI50 [15]: 380 nM; GI50 [16]: 12200 nM; GI50 [17, 25]: 210 nM; GI50 [18]: 74 nM; GI50 [18, 25]: 74 nM
CO/N=C(\C)c1ccc(Nc2c3ccccc3nc3occc23)cc1 [Compound 8b, (E)-1-[4-(Furo[2,3-b]quinolin-4-ylamino)phenyl]ethanone O-Methyloxime]	360 nM	2580 nM	320 nM	570 nM	1270 nM	660 nM	1630 nM	580 nM	410 nM	480 nM	167 to 168 °C	480 nM	GI50 ([11]; Homo sapiens, A549): 720 nM; GI50 ([19]; Homo sapiens, EKVX): 3780 nM; GI50 ([12]; Homo sapiens, HOP-62, non-small-cell lung cancer cell line): 350 nM; GI50 ([13]; Homo sapiens, HOP-92, non-small-cell lung cancer cell line): 12100 nM; GI50 ([14]; Homo sapiens, NCI-H226): 3880 nM; GI50 ([15]; Homo sapiens, NCI-H23): 570 nM; GI50 ([16]; Homo sapiens, NCI-H322M): 1220 nM; GI50 ([17]; Homo sapiens, NCI-H460, non-small-cell lung cancer cell line): 560 nM; GI50 ([18]; Homo sapiens, NCI-H522): < 10 nM; GI50 [18, 25]: < 10 nM
C/C(=N\O)c1cccc(Nc2c3ccccc3nc3occc23)c1 [Compound 9a, (E)-1-[3-(Furo[2,3-b]quinolin-4-ylamino)phenyl]ethanone oxime]	3640 nM	8010 nM	5350 nM	10500 nM	4810 nM	13600 nM	9900 nM	16200 nM	3620 nM	5600 nM	248 to 249 °C	5600 nM	
CO/N=C(\C)c1cccc(Nc2c3ccccc3nc3occc23)c1 [Compound 9b, (E)-1-[3-(Furo[2,3-b]quinolin-4-ylamino)phenyl]ethanone O-Methyloxime]	4230 nM	10900 nM	6670 nM	11500 nM	8500 nM	11600 nM	12600 nM	17800 nM	8680 nM	7560 nM		7560 nM	
CC(=O)c1ccc(Nc2c3ccccc3nc3occ(Cl)c23)cc1 [Compound 13, 1-[4-(3-Chlorofuro[2,3-b]quinolin-4-ylamino)phenyl]ethanone]											245 to 247 °C		
COc1cccc2c1C(=O)c1c(O)c3c(c(O)c1C2=O)C[C@@](O)(C(C)=O)C[C@@H]3O[C@H]1C[C@H](N)[C@H](O)[C@H](C)O1 [DAM, Daunomycin, reference compound]													GI50 ([1]; Homo sapiens): < 10 nM; GI50 ([2]; Homo sapiens, read-out: GI50 Non-small-cell lung cancer): 43 nM; GI50 ([3]; Homo sapiens): 83 nM; GI50 ([4]; Homo sapiens): 20 nM; GI50 ([5]; Homo sapiens): 47 nM; GI50 ([6]; Homo sapiens): 62 nM; GI50 ([7]; Homo sapiens): 48 nM; GI50 ([8]; Homo sapiens, DU-145, read-out: GI50 Prostate cancer): 32 nM; GI50 ([9]; Homo sapiens): 110 nM; GI50 ([10]; Homo sapiens, read-out: GI50 MG_MID): 44 nM
COc1cc(NS(C)(=O)=O)ccc1Nc1c2ccccc2nc2ccccc12 [m-AMSA, 4′-(9-acridinylamino)methanesulfonyl-m-anisidine, reference compound]	100 nM	350 nM	1070 nM	420 nM	580 nM	1050 nM	870 nM	160 nM	580 nM	440 nM		440 nM	
